pIC50: −log10 of the molar value.
System: IFNα-induced pSTAT5 (pY694) in CD3 positive cells of human whole blood
Test: IFNα-Induced STAT Phosphorylation in Human Whole Blood
Type: cell-based
Conditions: Homo sapiens, 1 h compound incubation, 1000 U/mL recombinant human IFNα A/D for 15 min, pSTAT5 in CD3 positive population, read-out: Human WB IFNα-Induced Stat Phosph. (IC50)
In short: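 Read-out is median fluorescence intensity of pSTAT5 (pY694) in the CD3-positive gate, by flow cytometry after fix/lyse and permeabilization. Before that, whole human blood anticoagulated with EDTA or ACD-A received compound for an hour and 1000 U/mL IFNα A/D for 15 min.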

| pIC50 | Structure (SMILES) |
| --- | --- |
| 7.40 | COc1c(Nc2cc(NC(=O)C3CC3)nnc2C(N)=O)cccc1-c1noc(CN(C)S(=O)(=O)CC(F)(F)F)n1 [Example 55] |
| 6.59 | [2H]C([2H])([2H])NC(=O)c1nnc(NC(=O)C2CC2)cc1Nc1cccc(-c2ncc(CC(=O)N(C)C)o2)c1OC [Example 410, 6-(cyclopropanecarboxamido)-4-((3-(5-(2-(dimethylamino)-2-oxoethyl)oxazol-2-yl)-2-methoxyphenyl)amino)-N-(methyl-d3)pyridazine-3-carboxamide] |
| 6.80 | [2H]C([2H])([2H])NC(=O)c1nnc(NC(=O)C2CC2)cc1Nc1cccc(-c2nc(C)c(C(=O)N(C)CC)s2)c1OC [Example 370] |
| 6.35 | [2H]C([2H])([2H])NC(=O)c1nnc(NC(=O)C2CC2)cc1Nc1cccc(-c2nc(CC(=O)NCCOC)no2)c1OC [Example 176] |
| 6.00 | [2H]C([2H])([2H])NC(=O)c1nnc(NC(=O)C2CC2)cc1Nc1cccc(-c2nc(COCc3ccccc3)no2)c1OC [Example 144] |
| 5.82 | [2H]C([2H])([2H])NC(=O)c1nnc(NC(=O)C2CC2)cc1Nc1cccc(-c2noc(C(=O)N3CCS(=O)(=O)CC3)n2)c1OC [Example 20] |
| 7.62 | [2H]C([2H])([2H])NC(=O)c1nnc(NC(=O)C2CC2)cc1Nc1cccc(-c2noc(CN3CCOCC3)n2)c1OC [Example 7] |
| 6.70 | [2H]C([2H])([2H])NC(=O)c1nnc(NC(=O)C2CC2)cc1Nc1cccc(-c2nc([C@@H](CO)NC(C)=O)no2)c1OC [Example 220] |
| 6.14 | [2H]C([2H])([2H])NC(=O)c1nnc(NC(=O)C2CC2)cc1Nc1cccc(-c2nc([C@@H](C)NS(C)(=O)=O)no2)c1OC [Example 195] |
| 7.60 | CCS(=O)(=O)NCc1nc(-c2cccc(Nc3cc(NC(=O)C4CC4)nnc3C(N)=O)c2OC)no1 [Example 48] |
| 6.20 | [2H]C([2H])([2H])NC(=O)c1nnc(NC(=O)C2CC2)cc1Nc1cccc(-c2nc(CN3CCNCC3)no2)c1OC [Example 126] |
| 6.06 | [2H]C([2H])([2H])NC(=O)c1nnc(NC(=O)C2CC2)cc1Nc1cccc(-c2nc([C@@H](C)NC(=O)OC)no2)c1OC [Example 192] |

The remaining lines, values behind:

| Structure (SMILES) | pIC50 |
| --- | --- |
| [2H]C([2H])([2H])NC(=O)c1nnc(NC(=O)C2CC2)cc1Nc1cc(F)cc(-c2cc(NS(C)(=O)=O)n(C)n2)c1OC [Example 501] | 5.95 |
| [2H]C([2H])([2H])NC(=O)c1nnc(NC(=O)C2CC2)cc1Nc1cccc(-c2cc(C(=O)NCCOC)n(C)n2)c1OC [Example 458] | 5.92 |
| [2H]C([2H])([2H])NC(=O)c1nnc(NC(=O)C2CC2)cc1Nc1cccc(-c2nc(C)c(C(=O)N3CCC(N4CCN(CCO)CC4)CC3)s2)c1OC [Example 359] | 6.47 |
| [2H]C([2H])([2H])NC(=O)c1nnc(NC(=O)C2CC2)cc1Nc1cccc(-c2cnn(CCNC(=O)CO)n2)c1OC [Example 447] | 6.80 |
| [2H]C([2H])([2H])NC(=O)c1nnc(NC(=O)C2CC2)cc1Nc1cc(F)cc(-c2cc(C(=O)N(C)CCN(C)C)n(C)n2)c1OC [Example 514] | 6.06 |
| [2H]C([2H])([2H])NC(=O)c1nnc(NC(=O)C2CC2)cc1Nc1cccc(-c2ncc(CC(=O)N3CCS(=O)(=O)CC3)s2)c1OC [Example 250] | 6.19 |
| [2H]C([2H])([2H])NC(=O)c1cnc(Nc2cc(C)ccn2)cc1Nc1cccc(-c2noc(COCC)n2)c1OC [Example 100] | 7.22 |
| [2H]C([2H])([2H])NC(=O)c1nnc(Nc2cc(C)n(C)n2)cc1Nc1cc(F)cc(-c2cc(C(=O)N(C)C)n(C)n2)c1OC [Example 548] | 6.77 |
| [2H]C([2H])([2H])NC(=O)c1nnc(NC(=O)C2CC2)cc1Nc1cccc(-c2nc(CN3CCN(C(=O)OC)CC3)no2)c1OC [Example 138] | 6.74 |
| [2H]C([2H])([2H])NC(=O)c1nnc(NC(=O)C2CC2)cc1Nc1cccc(-c2ncc(C(=O)N[C@H]3C[C@H]4CC[C@@H](C3)N4C)s2)c1OC [Example 338] | 6.38 |
| [2H]C([2H])([2H])NC(=O)c1nnc(NC(=O)C2CC2)cc1Nc1cccc(-n2cc(CNC)nn2)c1OC [Example 5] | 5.48 |

— patent US12240840B2, “Amide-substituted heterocyclic compounds for the treatment of conditions related to the modulation of IL-12, IL-23 and/or IFN-alpha” (BRISTOL-MYERS SQUIBB COMPANY, priority 2018, dated 2025)
